{"source": "patent US5292734A", "about": "“Angiotensin II receptor blocking 2,3,6 substituted quinazolinones” (American Cyanamid Company, priority 1993, dated 1994)", "biological_target": "T1, Angiotensin II Receptor (Bos taurus, UniProt P25104)", "T1 construct": "The brownish tissue forming the adrenal cortex is scraped off and finely minced with scissors before homogenization; from tissue; host or cells: beef adrenal cortex, microsomal membranes (100,000 x g pellet)", "T1 sequence (P25104 1-359)": "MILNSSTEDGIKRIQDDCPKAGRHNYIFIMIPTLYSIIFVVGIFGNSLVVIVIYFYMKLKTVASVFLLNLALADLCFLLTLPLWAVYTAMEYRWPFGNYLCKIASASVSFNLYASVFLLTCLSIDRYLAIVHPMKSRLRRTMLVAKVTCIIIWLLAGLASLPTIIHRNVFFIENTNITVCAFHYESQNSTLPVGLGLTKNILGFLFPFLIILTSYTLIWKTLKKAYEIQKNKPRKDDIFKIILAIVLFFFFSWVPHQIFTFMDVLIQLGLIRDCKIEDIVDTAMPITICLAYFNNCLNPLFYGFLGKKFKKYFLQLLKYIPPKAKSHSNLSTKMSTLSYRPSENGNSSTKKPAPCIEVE", "assay": "Receptor binding assay: binding of [^125 I](Sar^1,Ile^8)AngII", "conditions": "beef adrenal cortex membranes, 60 min, room temperature", "text": "Beef adrenals are obtained from a local slaughter house (Maxwell-Cohen). [^125 I](Sar^1,Ile^8)AngII, S. A. 2200 Ci/mmole, is purchased from Dupont (NEN®, Boston, Mass.). All unlabeled AngII analogs, Dimethylsulfoxide (DMSO), nucleotides, bovine serum albumin (BSA) are purchased from Sigma Chemical Co., St. Louis, Mo. U.S.A.\nApproximately sixteen (16) to twenty (20) beef adrenal glands are processed as follows: fresh adrenal glands received on crushed ice are cleaned of fatty tissues and the tough membranes encapsulating the glands are removed and discarded. […] A 100 ul aliquot is withdrawn and the protein content of the preparation is determined by the Lowry's method (Lowry, O. H., Rosebrough, N. P., Farr, A. L. and Randall, R. J., Protein measurement with Polin phenol reagent. J. Biol. Chem., […], 265-275, 1951). […]\nThe binding of [^125 I](Sar^1 Ile^8)AngII to microsomal membranes is initiated by the addition of reconstituted membranes (1:10 vols.) in freshly made 50.0 mM Tris.HCl buffer, pH 7.4 containing 0.25% heat inactivated bovine serum albumin (BSA): 80 ul membrane protein (10 to 20 ug/assay) to wells already containing 100 ul of incubation buffer (as described above) and 20 ul [^125 I](Sar^1 Ile^8)AngII (Specific Activity, 2200 Ci/mmole). Non-specific binding is measured in the presence of 1.0 uM unlabeled (Sar^1,Ile^8)AngII, added in 20 ul volume. […]"}
{"molecule": "CCCCc1nc2ccc(C(O)CC3CCCN3)cc2c(=O)n1Cc1ccc(-c2ccccc2-c2nnn[nH]2)cc1", "note": "(racemic) [Example 80, CIS-(+/-)-2-Butyl-6-[1-hydroxy-2-(2-pyrrolidinyl)ethyl]-3-[[2'-(1H-tetrazol-5-yl)[1,1'-biphenyl]-4-yl]methyl] -4(3H)-quinazolinone]", "values": [{"measurement": "IC50", "result": 41, "unit": "nM"}]}
